Assay results reported in the supplement of paper PMC10307832.

Legend:
Assay in all cases: relative viability (nuclei count vs DMSO), 5 days (fraction); higher = more cells survive
[1] = compound: O=C(/C=C/c1ccccc1)NC(NC(=S)Nc1cccc2cccnc12)C(Cl)(Cl)Cl [Salubrinal] + CS(=O)(=O)N1CCN(Cc2cc3nc(-c4cccc5[nH]ncc45)nc(N4CCOCC4)c3s2)CC1 [Pictilisib] (partner 1 µM)
Summary of the method: (§1)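 Lung cancer cell lines, seeded in 1536-well plates, were treated the following day by pin tool with a single drug or with five library-drug doses (not always all listed) in √10 steps on top of a fixed anchor-drug dose. Cells were fixed and nuclei stained in one step after 5 days, and nuclei were counted. Relative viability is the nuclei count for treated wells divided by that for vehicle wells, reported as medians of duplicate plates.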

[2] = compound: O=C(/C=C/c1ccccc1)NC(NC(=S)Nc1cccc2cccnc12)C(Cl)(Cl)Cl [Salubrinal] + CC(=O)c1c(C)c2cnc(Nc3ccc(N4CCNCC4)cn3)nc2n(C2CCCC2)c1=O [Palbociclib] (partner 0.5 µM)
Summary of the method: as §1

[3] = compound: O=C(/C=C/c1ccccc1)NC(NC(=S)Nc1cccc2cccnc12)C(Cl)(Cl)Cl [Salubrinal] + O=C(c1cc(Cc2n[nH]c(=O)c3ccccc23)ccc1F)N1CCN(C(=O)C2CC2)CC1 [Olaparib] (partner 8 µM)
Summary of the method: as §1

[4] = compound: Cc1ccc2nc(NCCN)c3ncc(C)n3c2c1 + CC(=O)c1c(C)c2cnc(Nc3ccc(N4CCNCC4)cn3)nc2n(C2CCCC2)c1=O [Palbociclib] (partner 0.5 µM)
Summary of the method: as §1

| Cell Line | relative viability ([1]; first compound 0.08 µM) | relative viability ([1]; first compound 0.253 µM) | relative viability ([1]; first compound 0.8 µM) | relative viability ([1]; first compound 2.53 µM) | relative viability ([1]; first compound 8 µM) | relative viability ([2]; first compound 0.08 µM) | relative viability ([2]; first compound 0.253 µM) | relative viability ([2]; first compound 0.8 µM) | relative viability ([2]; first compound 2.53 µM) | relative viability ([2]; first compound 8 µM) | relative viability ([3]; first compound 0.08 µM) | relative viability ([3]; first compound 0.253 µM) | relative viability ([3]; first compound 0.8 µM) | relative viability ([3]; first compound 2.53 µM) | relative viability ([3]; first compound 8 µM) | relative viability ([4]; first compound 0.04 µM) | relative viability ([4]; first compound 0.1265 µM) | relative viability ([4]; first compound 0.4 µM) | relative viability ([4]; first compound 1.265 µM) | relative viability ([4]; first compound 4 µM) |
| --- | --- | --- | --- | --- | --- | --- | --- | --- | --- | --- | --- | --- | --- | --- | --- | --- | --- | --- | --- | --- |
| NCI-H1666 | 0.398 | 0.491 | 0.485 | 0.404 | 0.45 | 0.687 | 0.593 | 0.632 | 0.641 | 0.603 | 0.713 | 0.605 | 0.713 | 0.711 | 0.732 | 0.664 | 0.675 | 0.598 | 0.611 | 0.665 |
| NCI-H1734 | 0.452 | 0.508 | 0.503 | 0.517 | 0.438 | 0.393 | 0.334 | 0.392 | 0.344 | 0.343 | 0.699 | 0.6 | 0.651 | 0.583 | 0.637 | 0.319 | 0.367 | 0.369 | 0.319 | 0.254 |
| NCI-H1755 | 0.564 | 0.417 | 0.535 | 0.431 | 0.401 | 0.486 | 0.415 | 0.446 | 0.462 | 0.493 | 1.01 | 0.937 | 0.922 | 0.857 | 0.893 | 0.454 | 0.482 | 0.486 | 0.455 | 0.385 |
| NCI-H1792 | 0.324 | – | 0.246 | 0.287 | 0.243 | 0.789 | – | 0.678 | 0.686 | 0.66 | 0.531 | – | 0.583 | 0.287 | 0.408 | 0.694 | 0.649 | 0.652 | 0.562 | 0.625 |
| NCI-H1793 | 0.309 | 0.319 | 0.306 | 0.316 | 0.285 | 0.366 | 0.37 | 0.323 | 0.284 | 0.287 | 1.09 | 0.948 | 0.876 | 0.979 | 0.751 | 0.303 | 0.328 | 0.283 | 0.312 | 0.318 |
| NCI-H1915 | 0.855 | 0.942 | 0.999 | 0.946 | 0.953 | 0.506 | – | 0.576 | 0.559 | 0.568 | 0.256 | – | 0.257 | 0.28 | 0.273 | 0.512 | 0.51 | 0.39 | 0.552 | 0.488 |
| NCI-H1944 | 0.349 | 0.328 | 0.362 | 0.348 | 0.307 | 0.394 | 0.372 | 0.315 | 0.299 | 0.337 | 0.435 | 0.478 | 0.461 | 0.431 | 0.417 | 0.333 | 0.322 | 0.349 | 0.31 | 0.297 |
| NCI-H1975 | 0.259 | 0.269 | 0.338 | 0.269 | 0.278 | 0.473 | 0.424 | 0.675 | 0.717 | 0.567 | 0.926 | 0.59 | 0.777 | 0.769 | 0.613 | 0.626 | 0.583 | 0.647 | 0.611 | 0.517 |
| NCI-H1993 | 0.817 | 0.827 | 0.877 | 0.773 | 0.861 | 0.718 | 0.596 | 0.737 | – | 0.648 | 0.867 | 0.932 | 0.561 | – | 1.47 | 0.627 | 0.559 | 0.532 | 0.501 | 0.596 |
| NCI-H2009 | 0.976 | 0.857 | 1.02 | 0.756 | 0.749 | 0.224 | 0.171 | 0.197 | 0.225 | 0.172 | 0.758 | 0.581 | 0.547 | 0.685 | 0.656 | 0.238 | 0.202 | 0.245 | 0.275 | 0.295 |
| NCI-H2023 | 0.22 | 0.278 | 0.289 | 0.277 | 0.208 | 0.346 | 0.32 | 0.359 | 0.419 | 0.328 | 0.472 | 0.428 | 0.435 | 0.373 | 0.524 | 0.369 | 0.366 | 0.366 | 0.433 | 0.238 |
| NCI-H2085 | 0.464 | 0.475 | 0.512 | 0.542 | 0.489 | 0.457 | 0.471 | 0.484 | 0.438 | 0.427 | 0.804 | 0.742 | 0.765 | 0.76 | 0.745 | 0.49 | 0.514 | 0.465 | 0.469 | 0.478 |
| NCI-H2087 | 0.917 | 0.892 | 1.02 | 0.853 | 0.963 | 0.214 | 0.235 | 0.17 | 0.234 | 0.206 | 0.476 | 0.493 | 0.784 | 0.508 | 0.584 | 0.253 | 0.271 | 0.174 | 0.286 | 0.323 |
| NCI-H2126 | 0.423 | 0.479 | 0.515 | 0.483 | 0.481 | 0.382 | 0.383 | 0.363 | 0.388 | 0.386 | 1.01 | 0.754 | 0.941 | 0.88 | 0.951 | 0.392 | 0.392 | 0.319 | 0.403 | 0.372 |
| NCI-H2170 | 0.29 | 0.315 | 0.335 | 0.294 | 0.271 | 0.436 | 0.326 | 0.447 | 0.395 | 0.372 | 0.65 | 0.632 | 0.668 | 0.641 | 0.636 | 0.388 | 0.445 | 0.356 | 0.381 | 0.342 |
| NCI-H2228 | 0.472 | 0.356 | 0.31 | 0.543 | 0.321 | 0.613 | – | 1.04 | 0.752 | 0.567 | 0.691 | – | 0.969 | 0.555 | 0.385 | 0.649 | 0.763 | 0.908 | 0.782 | 0.648 |
